# Experimental data from patent US12611406B2, “Oxopiperazine derivatives for the treatment of cancer” (Inthera Bioscience AG, priority 2020, dated 2026).
# Assays:
# Format in all cases: in vivo
# [1] = 5-day daily oral repeated-dose pilot study in Beagle dogs (mesylate salt); conditions: for Tmax / Cmax / half-life: both sexes, Beagle, dog, plasma, po
# Protocol: The objective of the study was to determine the TK profile of Compound 1, following its daily administration through oral gavage for 5 consecutive days to Beagle dogs. Compound 1 (mesylate salt) was administered daily to groups of dogs (n=2/sex/group) by oral gavage (PO) for 5 consecutive days at doses of 1.5 and 2 mg/kg/day. The vehicle was 0.5% (w/v) methylcellulose in sterile water. For TK evaluation blood samples were collected from each dog on Days 1 and 5 at the following timepoints relative to dosing: pre-dose, 15 min, 30 min, as well as 1, 2, 4, 6, 8, 12, and 24 hours post-dose.
# NCI-H660 = NCI-H660 prostate cancer CDX mouse model; conditions: for Tumor growth inhibition: 6 weeks
# Excerpt: Left panel: Tumor growth curves. Right panel: Body weight development. The dosing regimen is indicated as dots below the curves. BID: twice daily treatment. QW: once weekly treatment. p.o.: per oral.
# NCI-H660 cells represent a rather far advanced PC type in which not only the tumor suppressor functions of Rb1 and p53 have been lost (see Table 1). Furthermore, the cells already have developed a small cell phenotype characteristic of advanced treatment-resistant PC. In contrast, 22Rv1 tumor cells that are wild-type for Rb1 and p53 pathways were less sensitive to Compound 1 treatment when a once weekly dosing scheme was used.
# Values larger than 100% indicate tumor regression.
# [2] = Single dose intravenous and oral PK in Beagle dogs (citrate salt); parameters: AUC(0-t) / AUC(0-inf): unit not given here; conditions: for AUC(0-inf) / AUC(0-t) / Tmax / half-life: both sexes, dog, whole blood
# Protocol: This study determined the PK profile of Compound 1 following a single intravenous injection or oral gavage administration to Beagle dogs.
# Compound 1 (citrate salt) was administered to two groups of dogs (n=1/sex/group) once by intravenous injection on Day 1, dose levels of 1 (Group 1) or 4 (Group 2) mg/kg/adm, and once by oral gavage on Day 3, dose levels of 3 (Group 1) and 12 (Group 2) mg/kg/adm, respectively. The vehicle was 5% dextrose in water for intravenous and aqueous citrate buffer solution for oral gavage administrations. Relative to each dosing on Days 1 and 3, series of blood samples were collected at pre-dose, 0.083, 0.25, 0.5, 1, 2, 4, and 7 hours for intravenous or at 0.25, 0.5, 1, 2, 4, 7, and 24 hours for oral gavage administration for analysis of Compound 1 concentrations in blood and subsequent calculation of PK parameters. Additional endpoints monitored during this study included mortality, clinical observations and body weight.
# [3] = 14-day daily oral repeated-dose DRF study in cynomolgus monkeys (mesylate salt); conditions: for half-life / AUC(0-t) / Cmax / Tmax: cynomolgus monkey, plasma
# Protocol: The objective of this exploratory study was to assess the TK profile of Compound 1 when repeatedly administered via the oral route to cynomolgus monkeys.
# Compound 1 (mesylate salt) administration in this dose-range-finder study was intended once daily for up to 14 consecutive days by oral gavage to groups of naïve cynomolgus monkeys (n=1/sex/group) at dose levels of 0.5, 4, 8, or 12 mg Compound 1 per kg bodyweight and day, using a staggered approach. The vehicle was 0.5% Methylcellulose in water. The actual dose levels and durations of dosing were flexibly adapted according to signs of tolerability and PK: Group 1 animals were dosed at 0.5 mg/kg/day for 10 days and after a 4-day washout phase for additional 12 days at 4 mg/kg/days; Group 2 animals at 12 mg/kg/day for 11 days; Group 3 animals at 8 mg/kg for 10 (males) or 9 (females) days; and Group 4 animals at 8 mg/kg for 5 days, respectively, as summarized in Table 10.
# The animals in the final group 4 were dosed orally once daily or 5 days with 8 mg/kg Compound 1 before a 9-day recovery phase was given.
# [4] = both sexes, po, 0.5 mg/kg, 0.5 mg/kg (Gr. 1), Day 1
# [5] = both sexes, po, 8 mg/kg, 8 mg/kg (Gr. 3), Day 1
# [6] = both sexes, po, 8 mg/kg, 8 mg/kg (Gr. 3), Day 5
# [7] = both sexes, po, 8 mg/kg, 8 mg/kg (Gr. 4), Day 1
# [8] = both sexes, po, 8 mg/kg, 8 mg/kg (Gr. 4), Day 5
# [9] = both sexes, po, 12 mg/kg, 12 mg/kg (Gr. 2), Day 1
# [10] = both sexes, po, 12 mg/kg, 12 mg/kg (Gr. 2), Day 7
# [11] = po, 0.5 mg/kg, 0.5 mg/kg (Gr. 1), Day 7
# [12] = po, 4 mg/kg, 4 mg/kg (Gr. 1), Day 1
# [13] = po, 4 mg/kg, 4 mg/kg (Gr. 1), Day 5
# [14] = po, 4 mg/kg, 4 mg/kg (Gr. 1), Day 11
structure (smiles),measurement,setting,value
"CC(C)C[C@@H]1NCCN([C@@H](CC(C)C)C(=O)N2CCC3(C[C@@H]2C)OCC(CN2CCCC2)CO3)C1=O (stereo partly drawn) [Compound 1, (S)-3-isobutyl-1-((S)-4-methyl-1-((S)-8-methyl-3-(pyrrolidin-1-ylmethyl)-1,5-dioxa-9-azaspiro[5.5]undecan-9-yl)-1-oxopentan-2-yl)piperazin-2-one]",Total AUC (AUC(0-inf)),"[1]; 1.5 mg/kg, Day 1",116 ng·h/mL
same,Total AUC (AUC(0-inf)),"[1]; 1.5 mg/kg, Day 5",213 ng·h/mL
same,Total AUC,"[1]; 2 mg/kg, Day 1",173 ng·h/mL
same,Total AUC,"[1]; 2 mg/kg, Day 5",270 ng·h/mL
same,Tmax,[1]; 1.5 mg/kg,~0.5 h
same,Cmax,"[1]; 1.5 mg/kg, Day 1",25.4 ng/mL
same,half-life,"[1]; 1.5 mg/kg, Day 1, read-out: elimination half-life (converted)",4.5 h
same,Cmax,"[1]; 1.5 mg/kg, Day 5",44.6 ng/mL
same,half-life,"[1]; 1.5 mg/kg, Day 5, read-out: elimination half-life (converted)",6.2 h
same,Cmax,"[1]; 2 mg/kg, Day 1",33.6 ng/mL
same,Tmax,"[1]; 2 mg/kg, Day 1",~0.4 h
same,half-life,"[1]; 2 mg/kg, Day 1, read-out: T1/2 (converted)",4.7 h
same,Cmax,"[1]; 2 mg/kg, Day 5",32.3 ng/mL
same,Tmax,"[1]; 2 mg/kg, Day 5",~2.1 h
same,half-life,"[1]; 2 mg/kg, Day 5, read-out: T1/2 (converted)",8.6 h
same,tolerability,[1]; daily oral for 5 consecutive days at 1.5 mg/kg/day,well-tolerated
same,Tumor growth inhibition,"NCI-H660; once weekly 15 mg/kg/day, p 0.002",74% (0.002)/
same,Tumor growth inhibition,"NCI-H660; once weekly 30 mg/kg/day, p 0.001",84% (0.001)
same,tumor growth,NCI-H660; once weekly 60 mg/kg,complete block of tumor growth
same,Tumor growth inhibition,"NCI-H660; once weekly 60 mg/kg/day single dose, p <0.001",99% (<0.001)/*6 weeks
same,Cl,[2]; IV 1 mg/kg,0.0057 (mg/kg)/(nmo/L)/h
same,Vss,[2]; IV 1 mg/kg,0.004 (mg/kg)/(nmo/L)
same,Cl,[2]; IV 4 mg/kg,0.0014 (mg/kg)/(nmo/L)/h
same,Vss,[2]; IV 4 mg/kg,0.004 (mg/kg)/(nmo/L)
same,tolerability,[2]; IV 1 and 4 mg/kg/adm or oral gavage 3 and 12 mg/kg/adm,well tolerated
same,AUC(0-inf),"[2]; Beagle, IV 1 mg/kg",0.089
same,AUC(0-t),"[2]; Beagle, IV 1 mg/kg",0.063
same,Tmax,"[2]; Beagle, IV 1 mg/kg",0.08 h
same,half-life,"[2]; Beagle, IV 1 mg/kg",0.5 h
same,AUC(0-inf),"[2]; Beagle, po 12 mg/kg",2.39
same,AUC(0-t),"[2]; Beagle, po 12 mg/kg",1.91
same,Tmax,"[2]; Beagle, po 12 mg/kg",0.25 h
same,half-life,"[2]; Beagle, po 12 mg/kg",3.3 h
same,AUC(0-inf),"[2]; beagle, IV 4 mg/kg",1.45
same,AUC(0-t),"[2]; beagle, IV 4 mg/kg",1.29
same,Tmax,"[2]; beagle, IV 4 mg/kg",0.08 h
same,half-life,"[2]; beagle, IV 4 mg/kg",2.5 h
same,AUC(0-inf),"[2]; beagle, po 3 mg/kg",0.289
same,AUC(0-t),"[2]; beagle, po 3 mg/kg",0.182
same,Tmax,"[2]; beagle, po 3 mg/kg",0.25 h
same,half-life,"[2]; beagle, po 3 mg/kg",2.6 h
same,Cl,[2]; po 3 mg/kg,0.0052 (mg/kg)/(nmo/L)/h
same,Cl,[2]; po 12 mg/kg,0.0025 (mg/kg)/(nmo/L)/h
same,half-life,"[3]; both sexes, oral, in general, all groups, read-out: mean terminal plasma elimination half-lives",4.4 to 8.4 h
same,AUC(0-t),[3]; [4],0.7 ng·h/mL
same,Cmax,[3]; [4],0.24 ng/mL
same,Tmax,[3]; [4],1.5 h
same,half-life,"[3]; both sexes, po, 0.5 mg/kg, 0.5 mg/kg (Gr. 1), Day 1, read-out: T1/2 (converted)",4.9 h
same,half-life,"[3]; both sexes, po, 4 mg/kg, 4 mg/kg (Gr. 1), Day 11, read-out: T1/2 (converted)",5.1 h
same,AUC(0-t),[3]; [5],64.9 ng·h/mL
same,Cmax,[3]; [5],21.7 ng/mL
same,Tmax,[3]; [5],1 h
same,half-life,"[3]; both sexes, po, 8 mg/kg, 8 mg/kg (Gr. 3), Day 1, read-out: T1/2 (converted)",4.6 h
same,AUC(0-t),[3]; [6],92 ng·h/mL
same,Cmax,[3]; [6],18.8 ng/mL
same,Tmax,[3]; [6],1 h
same,half-life,"[3]; both sexes, po, 8 mg/kg, 8 mg/kg (Gr. 3), Day 5, read-out: T1/2 (converted)",6.5 h
same,AUC(0-t),[3]; [7],30.4 ng·h/mL
same,Cmax,[3]; [7],8.95 ng/mL
same,Tmax,[3]; [7],1 h
same,half-life,"[3]; both sexes, po, 8 mg/kg, 8 mg/kg (Gr. 4), Day 1, read-out: T1/2 (converted)",5.4 h
same,AUC(0-t),[3]; [8],51.3 ng·h/mL
same,Cmax,[3]; [8],13.8 ng/mL
same,Tmax,[3]; [8],1.5 h
same,half-life,"[3]; both sexes, po, 8 mg/kg, 8 mg/kg (Gr. 4), Day 5, read-out: T1/2 (converted)",6.4 h
same,AUC(0-t),[3]; [9],86 ng·h/mL
same,Cmax,[3]; [9],31.2 ng/mL
same,Tmax,[3]; [9],1 h
same,half-life,"[3]; both sexes, po, 12 mg/kg, 12 mg/kg (Gr. 2), Day 1, read-out: T1/2 (converted)",6.6 h
same,AUC(0-t),[3]; [10],214 ng·h/mL
same,Cmax,[3]; [10],48.8 ng/mL
same,Tmax,[3]; [10],1 h
same,half-life,"[3]; both sexes, po, 12 mg/kg, 12 mg/kg (Gr. 2), Day 7, read-out: T1/2 (converted)",7.4 h
same,Tmax,"[3]; both sexes, po, after oral administration, all groups",1 to 1.5 h
same,AUC(0-t),[3]; [11],1.2 ng·h/mL
same,Cmax,[3]; [11],0.18 ng/mL
same,Tmax,[3]; [11],1 h
same,half-life,"[3]; po, 0.5 mg/kg, 0.5 mg/kg (Gr. 1), Day 7, read-out: T1/2 (converted)",18.5 h
same,AUC(0-t),[3]; [12],10.5 ng·h/mL
same,Cmax,[3]; [12],2.95 ng/mL
same,Tmax,[3]; [12],1 h
same,half-life,"[3]; po, 4 mg/kg, 4 mg/kg (Gr. 1), Day 1, read-out: T1/2 (converted)",4.4 h
same,AUC(0-t),[3]; [13],9.5 ng·h/mL
same,Cmax,[3]; [13],2.3 ng/mL
same,Tmax,[3]; [13],1 h
same,half-life,"[3]; po, 4 mg/kg, 4 mg/kg (Gr. 1), Day 5, read-out: T1/2 (converted)",8.4 h
same,AUC(0-t),[3]; [14],10.9 ng·h/mL
same,Cmax,[3]; [14],3.06 ng/mL
same,Tmax,[3]; [14],1 h
same,tolerability,[3]; daily 0.5 and 4 mg/kg/day for 10 or 12 days,tolerated
same,tolerability,[3]; daily 8 and 12 mg/kg/day for 10 days,not tolerated
